Molecular target: T1, mouse Tas2r117 (Mus musculus, UniProt Q7M715)
T1 construct: expressed in transfected cells; host or cells: HEK293T-Gα16gust44
T1 sequence (Q7M715 1-330): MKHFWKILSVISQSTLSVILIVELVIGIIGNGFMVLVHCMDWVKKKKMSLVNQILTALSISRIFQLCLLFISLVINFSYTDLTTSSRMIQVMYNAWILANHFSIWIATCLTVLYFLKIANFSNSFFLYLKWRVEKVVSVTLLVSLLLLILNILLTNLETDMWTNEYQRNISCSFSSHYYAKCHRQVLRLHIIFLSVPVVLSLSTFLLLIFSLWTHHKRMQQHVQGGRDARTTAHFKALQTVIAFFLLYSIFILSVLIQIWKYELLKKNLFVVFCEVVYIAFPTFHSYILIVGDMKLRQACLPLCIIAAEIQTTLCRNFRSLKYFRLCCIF
Assay: Calcium imaging assay (FLIPR), HEK293T-Gα16gust44 cells transfected with mouse Tas2r117
Format: cell-based
Details: for Δ F/F: Tas2r117; for RLU: sheet Tas2r117, time trace
Description: This set of bile acids was chosen because of their commercial availability in high purities, their diversity within the class of bile acids and their previous detection and quantitation in human blood. Stock solutions were prepared in DMSO.
As basal growth medium for the HEK293T-Gα16gust44 cell line[17],[59] served Dulbecco’s modified eagle medium (DMEM) (Thermo Fisher Scientific, Darmstadt, Germany) supplemented with 10 % fetal bovine serum (Sigma-Aldrich, Steinheim, Germany), 2 mM L-glutamine (Sigma-Aldrich, Steinheim, Germany), 100 units/ml penicillin (Sigma Aldrich, Steinheim, Germany) and 100 µg/ml streptomycin (Sigma Aldrich, Steinheim, Germany). Growth conditions were 37 °C, 5 % CO2 and saturated air-humidity[60].
HEK293T-Gα16gust44 cells were seeded on poly-D-lysine (10 µg/ml) coated 96-well plates to reach a confluence of 40-60 % the next day. For transient transfection 150 ng of plasmid DNA containing the receptor of interest and 0.3 µl lipofectamine 2000 (Thermo Fisher Scientific, Darmstadt, Germany) per well were used and transfection took place according to the manual of lipofectamine 2000. […] The empty vector DNA (mock) was transfected as negative control[14],[41].
Cells were loaded using the calcium-sensitive fluorescent dye Fluo-4-AM (Abcam, Cambridge, Great Britain) in the presence of 2.5 mM probenecid (Sigma-Aldrich, Steinheim, Germany) the day after transfection[13],[41]. 1 h after loading, cells were washed with C1 buffer using a BioTek Cell Washer, incubated in the dark for half an hour and washed again. For automated agonist application and measurement of fluorescence changes, a FLIPR^TETRA device (Molecular Devices, San José, United States) was used. Viability of cells was tested by application of 100 nM Somatostatin 14 (Bachem, Bubendorf, Switzerland)[42].
Measured data were negative control corrected by subtracting the signal of the mock-transfected cells and exported to Microsoft Excel using the FLIPR software ScreenWorks 4.2. In Microsoft Excel software, standardization of maximum fluorescence intensities to the basal fluorescence and normalization to the buffer-only control was done to calculate the relative fluorescence changes (ΔF/F).
Initial screening experiments performed in duplicate wells were confirmed by at least one replication and representative traces were selected for display. All dose-response relationships were determined by three independent experiments (biological replicates) performed in duplicates (technical replicates). Threshold concentrations, defined as lowest substance concentrations leading to statistically significant elevated fluorescence changes in receptor-transfected cells compared with empty vector-transfected cells, were determined using SigmaPlot with Student’s t-test to evaluate statistical significance (p < 0.01).

C[C@H](CCC(=O)NCC(=O)O)[C@H]1CC[C@H]2[C@@H]3[C@H](O)C[C@@H]4C[C@H](O)CC[C@]4(C)[C@H]3C[C@H](O)[C@]12C [Glycocholic Acid, glycocholic acid]
Δ F/F (conc. 0,01 mM): 0.04745 | Δ F/F (conc. 0,1 mM): 0.1208 | Δ F/F (conc. 0,03 mM): 0.08527 | Δ F/F (conc. 0,3 mM): 0.126 | Δ F/F (conc. 0,0003 mM): 0.0009082 | Δ F/F (conc. 0,001 mM): -0.007003 | Δ F/F (conc. 0,003 mM): 0.01508 | RLU (Time (s) 0): 0 RLU | RLU (Time (s) 2): -1.6624 RLU | RLU (Time (s) 4): 36.4597 RLU | RLU (Time (s) 6): 6 RLU | RLU (Time (s) 8): 8.49 RLU | RLU (Time (s) 12): -1.574 RLU | RLU (Time (s) 14): -17.8222 RLU | RLU (Time (s) 16): -9.405 RLU | RLU (Time (s) 18): -10.6465 RLU | RLU (Time (s) 18.797): -31.8582 RLU | RLU (Time (s) 20.797): -50.2175 RLU | RLU (Time (s) 22.797): -35.3697 RLU | RLU (Time (s) 24.797): -21.9519 RLU | RLU (Time (s) 26.797): 21.3834 RLU | RLU (Time (s) 28.797): 104.133 RLU | RLU (Time (s) 30.797): 136.733 RLU | RLU (Time (s) 32.797): 195.234 RLU | RLU (Time (s) 34.797): 290.459 RLU | RLU (Time (s) 36.797): 340.932 RLU | RLU (Time (s) 38.797): 397.791 RLU | RLU (Time (s) 40.797): 414.428 RLU | RLU (Time (s) 42.797): 437.759 RLU | RLU (Time (s) 44.797): 439.85 RLU | RLU (Time (s) 46.797): 450.862 RLU | RLU (Time (s) 48.797): 498.067 RLU | RLU (Time (s) 50.797): 490.971 RLU | RLU (Time (s) 52.797): 511.962 RLU | RLU (Time (s) 54.797): 520.574 RLU | RLU (Time (s) 56.797): 524.281 RLU | RLU (Time (s) 58.797): 554.582 RLU | RLU (Time (s) 60.797): 523.267 RLU | RLU (Time (s) 62.797): 554.128 RLU | RLU (Time (s) 64.797): 560.589 RLU | RLU (Time (s) 66.797): 586.355 RLU | RLU (Time (s) 68.797): 595.813 RLU | RLU (Time (s) 70.797): 569.01 RLU | RLU (Time (s) 72.797): 587.543 RLU | RLU (Time (s) 74.797): 600.561 RLU | RLU (Time (s) 76.797): 625.108 RLU | RLU (Time (s) 78.797): 601.569 RLU | RLU (Time (s) 80.797): 601.653 RLU | RLU (Time (s) 82.797): 613.098 RLU | RLU (Time (s) 84.797): 590.202 RLU | RLU (Time (s) 86.797): 586.509 RLU | RLU (Time (s) 88.797): 591.824 RLU | RLU (Time (s) 90.797): 608.043 RLU | RLU (Time (s) 92.797): 567.854 RLU | RLU (Time (s) 94.797): 592.934 RLU | RLU (Time (s) 96.797): 555.343 RLU | RLU (Time (s) 98.797): 591.525 RLU | RLU (Time (s) 100.797): 565.961 RLU | RLU (Time (s) 102.797): 558.057 RLU | RLU (Time (s) 104.797): 568.873 RLU | RLU (Time (s) 106.797): 600.41 RLU | RLU (Time (s) 108.797): 557.119 RLU | RLU (Time (s) 110.797): 566.614 RLU | RLU (Time (s) 112.797): 544.906 RLU | RLU (Time (s) 114.797): 533.624 RLU | RLU (Time (s) 116.797): 578.387 RLU | RLU (Time (s) 118.797): 540.575 RLU | RLU (Time (s) 120.797): 553.404 RLU | RLU (Time (s) 122.797): 531.136 RLU | RLU (Time (s) 124.797): 541 RLU | RLU (Time (s) 126.797): 530.303 RLU | RLU (Time (s) 128.797): 505.327 RLU | RLU (Time (s) 130.797): 508.223 RLU | RLU (Time (s) 132.797): 529.676 RLU | RLU (Time (s) 134.797): 490.998 RLU | RLU (Time (s) 136.797): 480.544 RLU | RLU (Time (s) 137.562): 494.151 RLU | RLU (Time (s) 143.578): 475.248 RLU | RLU (Time (s) 149.578): 448.977 RLU | RLU (Time (s) 155.578): 429.963 RLU | RLU (Time (s) 161.578): 410.536 RLU | RLU (Time (s) 167.578): 411.276 RLU | RLU (Time (s) 173.578): 378.737 RLU | RLU (Time (s) 179.578): 356.849 RLU | RLU (Time (s) 191.578): 338.845 RLU | RLU (Time (s) 197.578): 316.205 RLU | RLU (Time (s) 209.578): 296.441 RLU | RLU (Time (s) 221.578): 181.834 RLU | RLU (Time (s) 233.578): 175.03 RLU | RLU (Time (s) 239.578): 155.758 RLU | RLU (Time (s) 245.578): 143.461 RLU | RLU (Time (s) 293.578): 87.8538 RLU | RLU (Time (s) 299.578): 79.8727 RLU | RLU (Time (s) 305.578): 78.6198 RLU | RLU (Time (s) 311.578): 69.0671 RLU | RLU (Time (s) 317.578): 91.9062 RLU | RLU (Time (s) 323.578): 87.6118 RLU | RLU (Time (s) 329.578): 65.9416 RLU | RLU (Time (s) 335.578): 41.2589 RLU | RLU (Time (s) 341.578): 94.1086 RLU | RLU (Time (s) 347.578): 67.2353 RLU | RLU (Time (s) 353.578): 54.4225 RLU | RLU (Time (s) 359.578): 85.0918 RLU | EC50 (calculated where receptor saturation was reached, read-out: EC50 Tas2r117): 16 ± 2.5 µM | Activation threshold concentration Tas2r117 (p < 0.01 vs empty vector): 3 µM

Reference: article PMC10247784, “Physiological activation of human and mouse bitter taste receptors by bile acids” (Communications Biology, 2023)
